{"source": "PubChem BioAssay (NCI)", "experiment_in_all_cases": "inhibition of tumour cell growth, NCI panel, 384-well format", "key": {"NCI-H23 lung": {"test_system": "NCI-H23 lung"}, "NCI-H460 NSCLC": {"test_system": "NCI-H460 NSCLC"}, "HOP-92 NSCLC": {"test_system": "HOP-92 NSCLC"}, "SF-539 CNS": {"test_system": "SF-539 CNS"}, "HCC-2998 colon": {"test_system": "HCC-2998 colon"}, "MDA-MB-231 breast": {"test_system": "MDA-MB-231 breast"}, "TK-10 renal": {"test_system": "TK-10 renal"}, "U251 glioblastoma": {"test_system": "U251 glioblastoma"}, "SN12C renal": {"test_system": "SN12C renal"}, "CCRF-CEM leukemia": {"test_system": "CCRF-CEM leukemia"}, "OVCAR-4 ovarian": {"test_system": "OVCAR-4 ovarian"}, "DU-145 prostate": {"test_system": "DU-145 prostate"}, "SNB-75 CNS": {"test_system": "SNB-75 CNS"}, "MDA-MB-435 melanoma": {"test_system": "MDA-MB-435 melanoma"}, "SF-268 CNS": {"test_system": "SF-268 CNS"}, "MDA-MB-468 breast": {"test_system": "MDA-MB-468 breast"}, "UACC-62 melanoma": {"test_system": "UACC-62 melanoma"}, "NCI-H522 lung": {"test_system": "NCI-H522 lung"}, "CAKI-1 renal": {"test_system": "CAKI-1 renal"}, "HT29 colon": {"test_system": "HT29 colon"}, "UACC-257 melanoma": {"test_system": "UACC-257 melanoma"}, "A549 NSCLC": {"test_system": "A549 NSCLC"}, "MOLT-4 leukemia": {"test_system": "MOLT-4 leukemia"}, "SK-MEL-28 melanoma": {"test_system": "SK-MEL-28 melanoma"}, "EKVX NSCLC": {"test_system": "EKVX NSCLC"}, "KM12 colon": {"test_system": "KM12 colon"}, "SW-620 colon": {"test_system": "SW-620 colon"}, "SR leukemia": {"test_system": "SR leukemia"}, "A498 renal": {"test_system": "A498 renal"}}, "note": "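The concentration for 50% growth inhibition is given as GI50. The concentration for full growth arrest is given as TGI.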", "data": [{"smiles": "CCn1c(=O)c(-c2ccn[nH]2)cc2c(C)nc(N)nc21", "values": [{"measurement": "GI50", "setting": "NCI-H23 lung", "result": 1430, "unit": "nM"}, {"measurement": "TGI", "setting": "NCI-H23 lung", "result": "> 30.2", "unit": "µM"}, {"measurement": "GI50", "setting": "NCI-H460 NSCLC", "result": 883, "unit": "nM"}, {"measurement": "TGI", "setting": "NCI-H460 NSCLC", "result": 10.8, "unit": "µM"}, {"measurement": "GI50", "setting": "HOP-92 NSCLC", "result": 201, "unit": "nM"}, {"measurement": "TGI", "setting": "HOP-92 NSCLC", "result": 1310, "unit": "nM"}, {"measurement": "GI50", "setting": "SF-539 CNS", "result": 2970, "unit": "nM"}, {"measurement": "TGI", "setting": "SF-539 CNS", "result": 21.5, "unit": "µM"}, {"measurement": "GI50", "setting": "HCC-2998 colon", "result": 2190, "unit": "nM"}, {"measurement": "TGI", "setting": "HCC-2998 colon", "result": 13.9, "unit": "µM"}, {"measurement": "GI50", "setting": "MDA-MB-231 breast", "result": 955, "unit": "nM"}, {"measurement": "TGI", "setting": "MDA-MB-231 breast", "result": "> 23.8", "unit": "µM"}, {"measurement": "GI50", "setting": "TK-10 renal", "result": 790, "unit": "nM"}, {"measurement": "TGI", "setting": "TK-10 renal", "result": 3.5, "unit": "µM"}, {"measurement": "GI50", "setting": "U251 glioblastoma", "result": 5.62, "unit": "µM"}, {"measurement": "TGI", "setting": "U251 glioblastoma", "result": 97.9, "unit": "µM"}, {"measurement": "GI50", "setting": "SN12C renal", "result": 1220, "unit": "nM"}, {"measurement": "TGI", "setting": "SN12C renal", "result": "> 34.5", "unit": "µM"}, {"measurement": "GI50", "setting": "CCRF-CEM leukemia", "result": 434, "unit": "nM"}, {"measurement": "TGI", "setting": "CCRF-CEM leukemia", "result": 2540, "unit": "nM"}, {"measurement": "GI50", "setting": "OVCAR-4 ovarian", "result": 1390, "unit": "nM"}, {"measurement": "TGI", "setting": "OVCAR-4 ovarian", "result": 11.2, "unit": "µM"}, {"measurement": "GI50", "setting": "DU-145 prostate", "result": 3.38, "unit": "µM"}, {"measurement": "TGI", "setting": "DU-145 prostate", "result": "> 100", "unit": "µM"}, {"measurement": "GI50", "setting": "SNB-75 CNS", "result": 477, "unit": "nM"}, {"measurement": "TGI", "setting": "SNB-75 CNS", "result": 2400, "unit": "nM"}, {"measurement": "GI50", "setting": "MDA-MB-435 melanoma", "result": 2710, "unit": "nM"}, {"measurement": "TGI", "setting": "MDA-MB-435 melanoma", "result": 19.7, "unit": "µM"}, {"measurement": "GI50", "setting": "SF-268 CNS", "result": 1890, "unit": "nM"}, {"measurement": "TGI", "setting": "SF-268 CNS", "result": 15.6, "unit": "µM"}, {"measurement": "GI50", "setting": "MDA-MB-468 breast", "result": 358, "unit": "nM"}, {"measurement": "TGI", "setting": "MDA-MB-468 breast", "result": 1570, "unit": "nM"}, {"measurement": "GI50", "setting": "UACC-62 melanoma", "result": 1560, "unit": "nM"}, {"measurement": "TGI", "setting": "UACC-62 melanoma", "result": 10.7, "unit": "µM"}, {"measurement": "GI50", "setting": "NCI-H522 lung", "result": 671, "unit": "nM"}, {"measurement": "TGI", "setting": "NCI-H522 lung", "result": 4.23, "unit": "µM"}, {"measurement": "GI50", "setting": "CAKI-1 renal", "result": 663, "unit": "nM"}, {"measurement": "TGI", "setting": "CAKI-1 renal", "result": 3.78, "unit": "µM"}, {"measurement": "GI50", "setting": "HT29 colon", "result": 2420, "unit": "nM"}, {"measurement": "TGI", "setting": "HT29 colon", "result": "> 69.5", "unit": "µM"}, {"measurement": "GI50", "setting": "UACC-257 melanoma", "result": 3.78, "unit": "µM"}, {"measurement": "TGI", "setting": "UACC-257 melanoma", "result": 39.4, "unit": "µM"}, {"measurement": "GI50", "setting": "A549 NSCLC", "result": 2270, "unit": "nM"}, {"measurement": "TGI", "setting": "A549 NSCLC", "result": 9.94, "unit": "µM"}, {"measurement": "GI50", "setting": "MOLT-4 leukemia", "result": 587, "unit": "nM"}, {"measurement": "TGI", "setting": "MOLT-4 leukemia", "result": 2160, "unit": "nM"}, {"measurement": "GI50", "setting": "SK-MEL-28 melanoma", "result": 1140, "unit": "nM"}, {"measurement": "TGI", "setting": "SK-MEL-28 melanoma", "result": 7.22, "unit": "µM"}, {"measurement": "GI50", "setting": "EKVX NSCLC", "result": 911, "unit": "nM"}, {"measurement": "TGI", "setting": "EKVX NSCLC", "result": 4.52, "unit": "µM"}, {"measurement": "GI50", "setting": "KM12 colon", "result": 3.39, "unit": "µM"}, {"measurement": "TGI", "setting": "KM12 colon", "result": 38.6, "unit": "µM"}, {"measurement": "GI50", "setting": "SW-620 colon", "result": 3.24, "unit": "µM"}, {"measurement": "TGI", "setting": "SW-620 colon", "result": 25.7, "unit": "µM"}, {"measurement": "GI50", "setting": "SR leukemia", "result": 1750, "unit": "nM"}, {"measurement": "TGI", "setting": "SR leukemia", "result": 5, "unit": "µM"}, {"measurement": "GI50", "setting": "A498 renal", "result": 384, "unit": "nM"}, {"measurement": "TGI", "setting": "A498 renal", "result": 1970, "unit": "nM"}]}]}
